From PubChem BioAssay AID256 (DTP/NCI, 2004)
Values joined by “and” are separate entries in the source; they are usually repeats but may differ in a detail not shown here. Identical values can stand only once. Toxic doses and inconclusive results are not listed.

System: CD2F1 mice, L1210 leukemia ip, survival T/C
Assay: NCI In Vivo Anticancer Drug Screen. Data for tumor model L1210 Leukemia (intraperitoneal) in CD2F1 (CDF1) mice
Conditions: higher = longer survival
Procedure, shortened: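 Tumor-bearing mice (transplanted tumor) were split into treated and vehicle control groups, and the measured endpoint of each treated group was divided by that of its vehicle controls.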

[1] = endpoint: mean survival time, dose: 50.0 mg/kg/injection, schedule: Q01DX001 (ip), vehicle: saline

## O=CC(NC(=O)N(CCCl)N=O)C(O)C(O)C(O)CO (configuration not stated)
endpoint: mean survival time, dose: 0.94 mg/kg/injection, schedule: Q01DX009 (ip), vehicle: citric acid
  T/C: 117 % of control
endpoint: mean survival time, dose: 1.88 mg/kg/injection, schedule: Q01DX009 (ip), vehicle: citric acid
  T/C: 162 % of control
endpoint: mean survival time, dose: 3.75 mg/kg/injection, schedule: Q01DX009 (ip), vehicle: citric acid
  T/C: 182 % of control and 242 % of control
endpoint: mean survival time, dose: 3.75 mg/kg/injection, schedule: Q01DX009 (ip), vehicle: saline
  T/C: 186 % of control
endpoint: mean survival time, dose: 3.8 mg/kg/injection, schedule: Q01DX009 (ip), vehicle: water
  T/C: 406 % of control
endpoint: mean survival time, dose: 5.0 mg/kg/injection, schedule: Q04DX002 (ip), vehicle: saline
  T/C: 173 % of control and 250 % of control
endpoint: mean survival time, dose: 7.0 mg/kg/injection, schedule: Q01DX001 (ip), vehicle: saline
  T/C: 115 % of control
endpoint: mean survival time, dose: 7.5 mg/kg/injection, schedule: Q01DX009 (ip), vehicle: citric acid
  T/C: 97 % of control
endpoint: mean survival time, dose: 7.5 mg/kg/injection, schedule: Q01DX009 (ip), vehicle: saline
  T/C: 223 % of control
endpoint: mean survival time, dose: 7.5 mg/kg/injection, schedule: Q01DX009 (ip), vehicle: water
  T/C: 154 % of control
endpoint: mean survival time, dose: 8.0 mg/kg/injection, schedule: Q01DX001 (ip), vehicle: water
  T/C: 267 % of control
endpoint: mean survival time, dose: 10.0 mg/kg/injection, schedule: Q04DX002 (ip), vehicle: saline
  T/C: 276 % of control and 289 % of control
endpoint: mean survival time, dose: 11.0 mg/kg/injection, schedule: Q01DX001 (ip), vehicle: saline
  T/C: 151 % of control and 160 % of control
endpoint: mean survival time, dose: 12.5 mg/kg/injection, schedule: Q01DX001 (ip), vehicle: saline
  T/C: 158 % of control
endpoint: mean survival time, dose: 15.0 mg/kg/injection, schedule: Q01DX009 (ip), vehicle: saline
  T/C: 120 % of control
endpoint: mean survival time, dose: 15.0 mg/kg/injection, schedule: Q01DX009 (ip), vehicle: water
  T/C: 93 % of control
endpoint: mean survival time, dose: 16.0 mg/kg/injection, schedule: Q01DX001 (ip), vehicle: saline
  T/C: 336 % of control [middle of 4 runs]
endpoint: mean survival time, dose: 16.0 mg/kg/injection, schedule: Q01DX001 (ip), vehicle: water
  T/C: 369 % of control
endpoint: mean survival time, dose: 20.0 mg/kg/injection, schedule: Q01DX001 (ip), vehicle: saline
  T/C: 688 % of control
endpoint: mean survival time, dose: 20.0 mg/kg/injection, schedule: Q04DX002 (ip), vehicle: saline
  T/C: 331 % of control and 335 % of control
endpoint: mean survival time, dose: 25.0 mg/kg/injection, schedule: Q01DX001 (ip), vehicle: saline
  T/C: 535 % of control
endpoint: mean survival time, dose: 28.0 mg/kg/injection, schedule: Q01DX001 (ip), vehicle: saline
  T/C: 857 % of control
endpoint: mean survival time, dose: 32.0 mg/kg/injection, schedule: Q01DX001 (ip), vehicle: water
  T/C: 372 % of control
endpoint: mean survival time, dose: 36.0 mg/kg/injection, schedule: Q01DX001 (ip), vehicle: saline
  T/C: 603 % of control [middle of 4 runs]
endpoint: mean survival time, dose: 40.0 mg/kg/injection, schedule: Q04DX002 (ip), vehicle: saline
  T/C: 92 % of control and 101 % of control
[1]
  T/C: 202 % of control
endpoint: mean survival time, dose: 54.0 mg/kg/injection, schedule: Q01DX001 (ip), vehicle: saline
  T/C: 300 % of control and 548 % of control
endpoint: median survival time, dose: 15.0 mg/kg/injection, schedule: Q01DX001 (ip), vehicle: saline
  T/C: 152 % of control
endpoint: median survival time, dose: 25.0 mg/kg/injection, schedule: Q01DX001 (ip), vehicle: saline
  T/C: 181 % of control
endpoint: median survival time, dose: 42.0 mg/kg/injection, schedule: Q01DX001 (ip), vehicle: saline
  T/C: 406 % of control

## CCOC(=O)c1cccc(N(CCOS(C)(=O)=O)CCOS(C)(=O)=O)c1
endpoint: mean survival time, dose: 2.0 mg/kg/injection, schedule: Q01DX010 (ip), vehicle: saline
  T/C: 100 % of control
endpoint: mean survival time, dose: 4.0 mg/kg/injection, schedule: Q01DX010 (ip), vehicle: saline
  T/C: 106 % of control
endpoint: mean survival time, dose: 8.0 mg/kg/injection, schedule: Q01DX010 (ip), vehicle: saline
  T/C: 119 % of control
endpoint: mean survival time, dose: 16.0 mg/kg/injection, schedule: Q01DX010 (ip), vehicle: saline
  T/C: 121 % of control
[1]
  T/C: 98 % of control
endpoint: mean survival time, dose: 100.0 mg/kg/injection, schedule: Q01DX001 (ip), vehicle: saline
  T/C: 101 % of control
endpoint: mean survival time, dose: 200.0 mg/kg/injection, schedule: Q01DX001 (ip), vehicle: saline
  T/C: 101 % of control
